Assay [1] concerns the target T1, 5′-nucleotidase (Mus musculus, UniProt Q61503).
T1 construct: endogenous in cells; host or cells: primary hepatocytes from C57BL/6J mice
T1 sequence (Q61503 29-551): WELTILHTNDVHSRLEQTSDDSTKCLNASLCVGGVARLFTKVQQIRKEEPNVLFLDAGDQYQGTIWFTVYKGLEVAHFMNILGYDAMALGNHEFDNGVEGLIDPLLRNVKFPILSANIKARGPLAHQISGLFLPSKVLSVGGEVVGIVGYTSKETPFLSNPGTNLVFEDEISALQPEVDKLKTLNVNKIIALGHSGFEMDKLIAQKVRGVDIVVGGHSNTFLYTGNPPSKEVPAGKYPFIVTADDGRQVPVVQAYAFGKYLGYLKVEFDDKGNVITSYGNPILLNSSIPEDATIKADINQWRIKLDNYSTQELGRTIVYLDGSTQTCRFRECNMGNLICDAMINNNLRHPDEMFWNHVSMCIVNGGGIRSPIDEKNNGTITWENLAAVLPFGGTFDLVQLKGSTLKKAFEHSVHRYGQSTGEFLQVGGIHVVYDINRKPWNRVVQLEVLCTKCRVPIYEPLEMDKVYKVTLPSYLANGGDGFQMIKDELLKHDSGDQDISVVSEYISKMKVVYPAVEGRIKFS
Briefly: 5'-nucleotidase activity assay in intact primary hepatocytes (adenosine from AMP by HPLC). It counts as cell-based. The settings on record: 500 μM AOPCP, 100 μM AMP. On the procedure:
The amounts of adenosine produced were determined by HPLC. […] Silencing efficiencies were evaluated by quantitative RT-PCR.
AOPCP inhibits 5′-nucleotidase activity by 97%.

The subject of assay [2] is GLP-1 secretion from the ileum. Briefly: GLP-1 secretion from ex vivo ileal explants (ELISA). It counts as cell-based, mouse. The settings on record: ileal explants of 24-month-old female B6 mice, 20 μM, 4 h, vs 0.2% DMSO. As for the experimental part:
GLP-1 measurement in plasma and in supernatants of ex vivo small intestine explant cultures. Blood was collected after 6 h refeeding (from 10 am to 4 pm) following 24 h fasting (from 9 am to 9 am) from tail veins of 2- or 24-month-old female Slc12a8 knockdown mice and their controls using EDTA-coated tubes. Blood was immediately chilled on ice, centrifuged at 5,000×g at 4° C., and plasma samples were stored at −80° C. Small intestines from gut-specific Slc12a8 knockdown female mice or 12-month-old Slc12a8KO female mice were cut into three segments of the duodenum, jejunum, and ileum with length ratios of 1:3:2 (Wang, H. H., et al., Hepatology, 2007, 45, 998-1006). […] GLP-1 levels in plasma and media were measured by GLP-1 Total ELISA Kit (EMD Millipore, MO) following the manufacturer's instruction. GLP-1 values were normalized by total protein content analyzed by Bradford assay.
The involvement of SIRT1 (Yoon, M. J., et al., Cell Metab., 2015 21, 706-717) and SIRT6 (Jiang, H. et al., Nature, 2013, 496, 110-113) in the observed increase in GLP-1 secretion was examined. […] GLP-1 levels were measured by ELISA in the supernatants from ex vivo ileal explants of 24-month-old female B6 mice cultured with 0.2% DMSO, 20 µM EX527 or 20 μM STK665401 for 4 h (n=3 mice, analyzed using ANOVA with Tukey's test).

The structures appear in SMILES notation.

Regarding `Nc1ncnc2c1ncn2[C@@H]1O[C@H](COP(=O)(O)CP(=O)(O)O)[C@@H](O)[C@H]1O` [AOPCP, adenosine-5′-[α,β-methylene]diphosphate], the “inhibition of 5′-nucleotidase activity” value in assay [1] was 97%.

For the compound `Cn1c(=O)c2cc(S(=O)(=O)Nc3ccc(Cc4ccncc4)cc3)ccc2n(C)c1=O` [STK665401], the GLP-1 secretion entry in assay [2] is “not”.

Source of the values: patent US12337010B2, “Compositions and methods of treatment using nicotinamide mononucleotide” (Washington University, priority 2017, dated 2025).
